Columns and labels:
MIF-wt and MIF-C80W = assay: Stabilization of transiently expressed MIF in HEK-MIF-knockdown cells; format: cell-based, human; details: HEK-MIF-KO cells transfected with rescue constructs
Description: Transient transfection of HEK-MIF-knockdown cells with MIF-rescue constructs were carried out with lipofectamine 3000 according to the manufacturer’s recommendations. Briefly, 5x10^5 HEK-MIF-ko cells were seeded into 12-well plates. At the next day the cells were transfected with 2.5 μg of vector DNA. Cells were washed twice with PBS and lysed in PBS/1% NP40 48h after transfection.

[1] = biological target: T1, recombinant wild-type MIF (Homo sapiens, UniProt P14174); assay: 15N-HSQC NMR binding to recombinant wild-type MIF
T1 construct: made in house; host or cells: E. coli BL21-(DE3)-Rosetta-pLysS, pET11a-MIF (15N/13C-labelled for NMR)
T1 sequence (P14174 2-115 limits assumed): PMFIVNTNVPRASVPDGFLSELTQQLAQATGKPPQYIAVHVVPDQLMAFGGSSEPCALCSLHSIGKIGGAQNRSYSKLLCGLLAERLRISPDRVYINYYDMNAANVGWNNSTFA
Description: The NMR F1-[^13C,^15N]-filtered-[^1H,^1H]-NOESY spectra for structure calculation were recorded on a 700 MHz Bruker Avance Neo spectrometer equipped with cryoprobe, and the ^15N-HSQC were recorded on a 600 MHz Bruker Avance III spectrometer equipped with cryoprobe. The filtered NOESY were recorded for MIF 1.0 mM and saturation of PAV-174, i.e., 1.0 mM of PAV-174. at 310K to reduce the rotational correlation time of the system, with two different mixing times 60 and 100ms; the free induction decay was measured for 106ms (2048 points) and the indirect dimension was set to 20ms (400 points); the signal acquisition was performed with 160 scans and the interscan delay was set to 1.5s. The ^15N-HSQC were measured at 298K with 121ms (2048 points) in the direct dimension and 53 ms (256 points) in the indirect dimension; the signal acquisition was performed through the accumulation of 16 scans and an interscan delay of 1s was applied. The cross-peaks corresponding to ligand-proteins were used to derive ligand-protein distant restraints using the initial rates of the normalized NOE intensity build-up curves.[91] […] The intermolecular distance restraints were kept semiambiguous, i.e., only the ligand signals were assigned, and the MIF- PAV-174 complex was calculated with the NMR^2 software[92] using the CYANA software for tortion angle dynamics structure calculation.

[2] = set-up: species or system SD rats; details: rat, in vivo, ip, 5 mg/kg
Description: Figure S5. PAV-17 4 decreases ta u phosphorylation and aggr e gat ion in vi v o. Rel a ted to […]
(A) MTD (Maximum Tol erated Dose) assessment of PAV com pounds in BALB/c mice. BALB/c mice we re dosed through int ra pe rit o ne al (IP ) ro ute at di ff e ren t doses as pe r bo dy we igh t of an ima ls an d mice we re obser ved at di ff e ren t time interval for toxic signs till 48 h, PD (Post dose) . MTD at wa s declared at NOAEL (No-obser ved-adver se-effect level) conc. of PAV […]
(B) PAV-61 7 dose- an d MIF-de pe nd en t ly reduces tau phosphorylati on (A T8) . SH-SY5Y-P301S-control or -MIF-knockdown cel ls we re treated with the indicated concentrations of PAV- […]
cel ls. The di ag ram s show the signals of AT8 normalized to total tau (HT7 ) from six (n =6) in de pe nd en t exper iments. One-wa y ANOVA (Sidak´s post-hoc)
(C) Pharmacokinetic assessment of PAV-61 7 in Sprague Da wley ra ts (S D). Ma le SD ra ts (n=4) we re dosed via three ro utes na me ly intravenous (IV )- 1 mg/kg, (IP )- 5 mg/kg an d per ora l (P O)- 5 mg/kg. Plasma concentration wa s anal yzed at di ff e ren t time intervals. Pharmacokinetic pa ra met e rs we re de t erm ine d usi ng Win No nlin . Cma x (p ea k pl asma concentration) achieved through IV wa s 12 8 ng / mL, IP wa s 36 2. 6 ng / mL an d PO wa s 15 1. 1 ng / mL at Tmax (time of pe ak concentration obser ved) 1 h, 0. 5 h an d 4 h respectively. […]

| Compound | stabilization of MIF-wt and MIF-C80W (MIF-wt and MIF-C80W) | binding to recombinant wild-type MIF (15N-HSQC spectra) [1] | tissue penetration [2] |
| --- | --- | --- | --- |
| CCc1cc(N2CCCC2)cc2[s+]c3cc(N4CCCC4)cc(C)c3nc12.[I-] [PAV-174, 3,7-Di(pyrrolidine-1-yl) 1-ethyl-9-methyl-phenothiazin-5-ium iodide] | significant stabilization | specific binding | – |
| [I-].c1cc2nc3ccc(N4CCCC4)cc3[s+]c2cc1N1CCCC1 [PAV-617, 3,7-Di(pyrrolidine-1-yl)phenothiazine-5-ium iodide] | – | – | good tissue penetration, including the brain |

— publication PMC12866179, “Oxidized MIF is an Alzheimer’s disease drug target relaying external risk factors to tau pathology” (Cell Reports Medicine, 2025)
